Measured values from patent US7581540B2, “Aerosol drug delivery device incorporating percussively activated heat packages” (Alexza Pharmaceuticals, Inc., priority 2004, dated 2009).
Read-outs that look alike come from different tables or passages of the source.

Legend:
[1] = drug aerosol purity and recovered yield after vaporization from a percussively ignited heat package, HPLC; format: physicochemical
[2] = 25° C.; cited from earlier work
[3] = cited from earlier work
[4] = for average nicotine purity of the aerosol: maximum temperature 300° C., air flow 20 L/min
Experimental: The purity of nicotine in an aerosol produced by vaporizing thin films of (nicotine)2-ZnBr2 was also determined. The percent purity of nicotine in the aerosol was determined by comparing the area under the curve representing nicotine with the area under the curve for all other components separated by HPLC.
The coatings of (nicotine)2-ZnBr2 complex were vaporized by applying a current to the metal foil sufficient to heat the coatings to temperatures of 300° C., 350° C., and 400° C. The aerosol formed by vaporizing the coating in an air flow of 20 L/min was analyzed by collecting the aerosol on oxalic acid coated filters. The collected aerosol was extracted from the filters with 5 mL of an aqueous solution containing 0.1% TFA. A Varian HPLC system having a single XTerra RP18, 4.6×150 mm column, with an eluant solution comprising a 75% aqueous phase of perchloric acid solution with one ampoule of 1-octanesulfonic acid sodium salt concentrate at pH 2, and a 25% organic phase of acetonitrile was used. The HPLC was performed under isocratic run conditions for 20 minutes.

[5] = airflow about 20 L/min
[6] = 350° C., air flow 28.3 L/min
Experimental: To coat metal foils, the (nicotine)2-ZnBr2 complex was dissolved in chloroform. Two separate coating thickness of the (nicotine)2-ZnBr2 complex on stainless steel were prepared. A 169.4 mg/mL solution of (nicotine)2-ZnBr2 complex in chloroform and a 338.8 mg/mL solution of (nicotine)2-ZnBr2 complex in chloroform were made. Exposure to light was minimized at all times during and after formation of these solutions. The (nicotine)2-ZnBr2 complex for each solution was hand coated onto 0.005 inch thick stainless foils using a 10 uL Hamilton syringe. 5.9 uL of the 169.4 mg/mL (nicotine)2-ZnBr2 complex solution was coated onto both sides of an area of 1.27 cm×2.3 cm of stainless steel. This corresponds to a 2 μm film thickness coating which contained about 1 mg of nicotine. Similarly, 8.8 μL of the 338.8 mg/mL (nicotine)2-ZnBr2 complex solution was coated onto both sides of an area of 1.27 cm×2.3 cm of stainless steel. This corresponds to a […] film thickness coating which contained about […] of nicotine The coatings were dried under vacuum for about 1 hour at 25° C. The coatings of (nicotine)2-ZnBr2 complex were stored in a vacuum for at least 30 minutes and protected from light prior to use.
The coatings of (nicotine)2-ZnBr2 complex were vaporized by applying a current of 13.0V to the metal foil sufficient to heat the coatings to temperature of 350° C. The aerosol formed by vaporizing the coating in an air flow of 28.3 L/min was analyzed by collected the aerosol on oxalic acid coated filters using an 8 stage Anderson impactor. […] After vaporization the filters were extracted with 5 mL of 0.1% trifluoroacetic acid/DI H2O and analyzed by HPLC.

[7] = smokeless nicotine products (chewing tobacco, oral snuff, tobacco sachets), buccal absorption

In the case of `CC(C)C(=O)OCC(=O)[C@@]12O[C@H](C3CCCCC3)O[C@@H]1C[C@H]1[C@@H]3CCC4=CC(=O)C=C[C@]4(C)[C@H]3[C@@H](O)C[C@@]12C` [ciclesonide], the “purity of the resultant aerosol” value ([1]; percussively ignited heat package, greater than 800° C., air flow 20 L/min, film 1.58 μm alprazolam, 6.33 μm pramipexole, 2.53 μm ciclesonide) is reported as 85.6%.

For `Cc1nnc2n1-c1ccc(Cl)cc1C(c1ccccc1)=NC2` [alprazolam], the “purity of the resultant aerosol” value [1] was 96.8% and the “recovered yield of aerosol” value [1] was 100%.

For `CN1CCCC1c1cccnc1` (stereo not shown) [nicotine], the vapor pressure [2] is listed as 0.0425 mmHg, the “time to attain nicotine blood level peak” value ([3]; cigarette smoking) is listed as no more than 10 min and the “nicotine blood level peak” value ([3]; produced by cigarettes) is listed as 30 to 40 ng/mL. For the same molecule, the “maximum nicotine blood concentration” value [3, 7] was “approximately 12 ng/mL” and the “time of use to attain maximum nicotine blood concentration” value [3, 7] was “approximately 30 minutes”.

For `CN1CCCC1c1cccnc1.CN1CCCC1c1cccnc1.[Br][Zn][Br]` (stereo not shown) [(nicotine)2-ZnBr2], the “average nicotine purity of the aerosol” value ([4]; 2 μm thick thin film) was “about 99.5%”, the “average nicotine purity of the aerosol” value ([4]; 6 μm thick thin film) was “about 99.99%” and the “purity of nicotine aerosol from 6 μm film compared with 2 μm film” value ([4]; for a given vaporization temperature) was “greater”. For the same molecule, the “change of nicotine purity of the aerosol” value ([4]; thin film heated to a maximum temperature of greater than 300° C.) was “decreased”, the “average yield of nicotine in the aerosol” value ([5]; 2 μm thick thin film, temperature range 300° C. to 400° C.) was “about 60±7%” and the “average yield of nicotine in the aerosol” value ([5]; 6 μm thick thin film, maximum temperature 300° C.) was “about 51±2%”. For the same molecule, the “average yield of nicotine in the aerosol” value ([5]; 6 μm thick thin film, maximum temperature 400° C.) was “about 73±1%”, the “MMAD of the nicotine aerosol” value ([6]; 2 μm thick film) was 2.00 and the “purity of the nicotine aerosol” value ([6]; 2 μm thick film) was “greater than 97%”. The “MMAD of the nicotine aerosol” value ([6]; 6 μm thick film) was 1.79 and the “purity of the nicotine aerosol” value ([6]; 6 μm thick film) was “greater than 97%”.
